Measured values reported in patent publication US20110033525A1, “Diterpene Glycosides as Natural Solubilizers” (priority 2008, published 2011).
In brackets after ≈: the same amount, converted by molar mass. Where two headings read alike, the source gives them in different places.

Columns and labels:
[1] = in vivo; cited from earlier work
[2] = system: Streptococcus uberis ATCC 27958; assay: Germicidal and Detergent Sanitizer Test (modified AOAC); type: cell-based; conditions: solution pH 6.5, 30 Seconds
Experimental: (§1) Germicidal and Detergent Sanitizer Test. The following challenge organisms were grown in trypticase soy broth for 24 h at 37° C.: Staphylococcus aureus (Gram-positive) ATCC 29740 (Newbould 305), Streptococcus agalactiae (Gram-positive) ATCC 27956 (McDonald 44), Streptococcus dysgalactiae (Gram-positive) ATCC 27957, Streptococcus uberis (Gram-positive) ATCC 27958, Escherichia coli (Gram-negative) ATCC 25922, Pseudomonas aeruginosa (Gram-negative) ATCC 27853, and clinical mastitis isolates of Enterobacter aerogenes (Gram-negative) (216RF) and Klebsiella pneumoniae (Gram-negative) (A37RR) from the Louisiana State University Hill Farm Research Station dairy herd.
(§2) Bacterial cultures. Aliquots of each 24-h bacterial culture were standardized to a turbidity of a 0.5 McFarland standard, which corresponds to approximately 150×10^6 colony-forming units (cfu) per ml. Aliquots containing 0.02 ml of this culture were added to 1.98 ml aliquots of the curcumin-rubusoside solution. […] This solution was mixed thoroughly, and diluted 1:1000 in saline, and 0.1 ml was plated on duplicate Letheen Agar (Becton Dickinson, Cockeysville, Md.) plates for each microorganism tested. Resultant colonies were counted after incubation of the plates at 37° C. for 24 h.
(§3) First Experiment. The test compound was a solubilized curcumin water solution. […] The solution was kept in the dark.
(§4) Second Experiment. For the second experiment, the bacterial cultures were as described above. […] First, 100 mL of a 5% w/v rubusoside water solution was prepared. […] This solution was then autoclaved at 115° C. and 1 atmosphere pressure for 30 min. The autoclaved solution was held in an incubator at 37° C. for 72 hr, and kept in the dark. The solution was adjusted to pH 7.4 by adding appropriate amount of phosphate buffered saline powder and then filtered through a 0.45 μm Nylon filter and analyzed on HPLC.

[3] = system: Streptococcus dysgalactiae ATCC 27957; assay: as above; type: cell-based
Experimental: as §1, §2, §3, §4

[4] = system: Staphylococcus aureus ATCC 29740 (Newbould 305); assay: as above; type: cell-based
Experimental: as §1, §2, §3, §4

[5] = system: Pseudomonas aeruginosa ATCC 27853; assay: as above; type: cell-based
Experimental: as §1, §2, §3, §4

[6] = system: Enterobacter aerogenes (A216RF); assay: as above; type: cell-based; conditions: solution pH 6.5, 30 Seconds
Experimental: as §1, §2, §3, §4

[7] = system: Streptococcus agalactiae ATCC 27956 (McDonald 44); assay: as above; type: cell-based
Experimental: as §1, §2, §3, §4

[8] = system: Escherichia coli ATCC 25922; assay: as above; type: cell-based
Experimental: as §1, §2, §3, §4

[9] = system: Klebsiella pneumoniae (A37RR); assay: as above; type: cell-based; conditions: solution pH 6.5, 30 Seconds
Experimental: as §1, §2, §3, §4

[10] = Stability of solubilizers and solubilized water solutions (heat, pH, light, storage)
[11] = system: PANC-1 (human pancreatic) cancer cells; assay: MTT cellular proliferation assay, PANC-1; type: cell-based; conditions: 72 hr
Experimental: (§5) Paclitaxel and camptothecin were purchased from Sigma Chemicals (St. Louis, Mo.). […] The solution was sonicated for 60 min at 69° C. and then placed in a shaking incubator at 25° C. for 48 hr. The solution was then centrifuged at 4,000×g, and the supernatant was filtered with a 0.2 μm nylon filter. […] The sample was labeled as TXL100. To make an aqueous solution of camptothecin, about 5 mg of camptothecin was weighed into a solution containing 70 mg/ml rubusoside. The solution was sonicated for 60 min at 69° C., and then placed in a shaking incubator at 25° C. for 48 hr. The solution was then centrifuged at 4,000×g and the supernatant was filtered with a 0.2 μm nylon filter. This aqueous solution was analyzed by HPLC and contained 10 μg/ml camptothecin in the presence of 70 mg/ml rubusoside. This sample was labeled as CPT70.
(§6) Inhibition of cellular proliferation was assessed by a MTT assay. Each well of the 96-well plate contained 10^4 cells/100 μl cell culture growth medium. The cells were seeded onto the plate and placed in a 37° C. incubator overnight. On the next day, the compound treatment was set up. A series of dilutions using phosphate buffered saline (PBS) containing 10% FBS (fetal bovine serum) with either the test compound or vehicle with cell culture growth medium was made for each well with a final volume of 200 μl. Each treatment had 8 wells in a column. Prior to the addition of the test compound, the existing medium in each of the wells was aspirated completely and carefully to avoid losing cells. A series of dilutions of the aqueous samples were made ranging from 20 μl to 0.078 μl supplemented with culture media to make a final volume of 200 μl for each well. The plate was placed in a 37° C. incubator for 72 hr. On the day of the staining, MTT solution (3 mg Thiazolyl Blue Tetrazolium Bromide/ml PBS was prepared. To each well, 25 μl MTT solution was directly added. The plate was then incubated for 90 to 120 min. Afterwards, the wells were aspirated completely and carefully. Finally, 50 μl DMSO (dimethyl sulfoxide) was added to each well. The plate was read at 650 nm on a microplate reader. Cell proliferations were calculated as % of the control using the vehicle treatment as the control.
(§7) Calculations of IC50 in molar concentrations were as follows. […] Thus, 1 μl/ml of TXL solution in the culture medium equaled 17 ng TXL/ml culture medium, which equaled 19.9 nM based on the molecular weight of 854.
(§8) CPT: The sample concentration of CPT was 10 μg/ml=10 ng/μl, and the molecular weight of camptothecin is 348. Thus, 1 μl/ml of CPT solution in the culture medium equaled 10 ng CPT/ml culture medium, which equaled 28.7 nM based on the molecular weight of 348.

physchem = conditions: for solubility: 25 °C, thermodynamic from solid
Experimental: Solubility test methods: A compound with low solubility was selected and weighed into multiple centrifuge tubes. Each experimental tube received a known amount of the solubilizing agent being tested. The control tubes remained only with the compound. The same volume, 1 mL, unless otherwise indicated, of deionized and distilled water was added to each tube. Alternatively, a set percentage of water solutions containing the solubilizer to be tested (e.g., 5% w/v or 10% w/v) were prepared separately. In these cases, the solubilizer-water solutions were added directly to the tubes containing the low-solubility compound. The tubes were then vortexed briefly and then sonicated for 60 min at temperature of 50° C. unless otherwise indicated. After sonication, the tubes were placed on an orbital shaker at a speed of 80 rpm in an incubator set at 25° C. for at least 24 hr. The tubes were then centrifuged at 4000 rpm for 10 min. The supernatant solution was passed through a 0.2 μm or 0.45 μm filter and analyzed for the concentration of the low-solubility compound, and sometimes the solubilizing compound, by HPLC or UV-Vis spectrophotometer.
The system was computer controlled, and the results were analyzed using Empower software. Calibrations curves were constructed using known concentrations of the compounds and were used to quantify the concentrations of the compounds dissolved in solution. A more complete description of the HPLC procedure for some of the diterpene glycosides is found in G. Chou et al., “Quantitative and fingerprint analyses of Chinese sweet tea plant (Rubus suavissimus S. Lee),” J. Agric. Food Chem., vol.
The ratio of peak areas was used to calculate the increase in water solubility in the absence or presence of solubilizers.

[12] = The Merck Index (1996) or Material Safety Data Sheets; cited from earlier work
[13] = system: various human cancer cell lines; conditions: Kaczirek 2004; read-out: Reported IC50 range; cited from earlier work
[14] = system: A549 (human lung) cancer cells; assay: MTT cellular proliferation assay, A549; type: cell-based; conditions: 72 hr
Experimental: as §5
Inhibition of cellular proliferation was assessed by a MTT assay. […] On the day of the staining, MTT solution (3 mg Thiazolyl Blue Tetrazolium Bromide/ml PBS was prepared. To each well, 25 μl MTT solution was directly added. The plate was then incubated for 90 to 120 min. Afterwards, the wells were aspirated completely and carefully. Finally, 50 μl DMSO (dimethyl sulfoxide) was added to each well. The plate was read at 650 nm on a microplate reader. Cell proliferations were calculated as % of the control using the vehicle treatment as the control. […]

[15] = system: PC3 (human prostate) cancer cells; assay: MTT cellular proliferation assay, PC3; type: cell-based; conditions: 72 hr
Experimental: as §5, §6, §7, §8

[16] = volume of aqueous sample per ml culture medium
[17] = Homo sapiens, converted from μl/ml, read-out: IC50

In the case of CCCCN(CCCC)CC(O)c1cc(Cl)cc2c1-c1ccc(Cl)cc1/C2=C/c1ccc(Cl)cc1 (stereo not drawn) [Lumefantrine], the Half-life [1] is listed as 72 to 140 h.

In the case of COc1cc(/C=C/C(=O)CC(=O)/C=C/c2ccc(O)c(OC)c2)ccc1O [Curcumin], the Percent reduction [2] is reported as “no observed inhibition”, the Percent reduction ([3]; solution pH 6.5, 10 Minutes) is reported as 47.92% and the Percent reduction ([3]; solution pH 6.5, 30 Seconds) is reported as 43.75%. For the same compound, the Percent reduction ([4]; solution pH 6.5, 10 Minutes) was 26.67%, the Percent reduction ([4]; solution pH 6.5, 30 Seconds) was 39.33% and the Percent reduction ([5]; solution pH 6.5, 10 Minutes) was 99.99%. The Percent reduction ([5]; solution pH 6.5, 30 Seconds) was 99.99%, the Percent reduction [6] was “no observed inhibition” and the Percent reduction ([7]; solution pH 6.5, 10 Minutes) was 99.7%. For the same compound, the Percent reduction ([7]; solution pH 6.5, 30 Seconds) was 91.7%, the Percent reduction ([8]; solution pH 6.5, 10 Minutes) was 98.54% and the Percent reduction ([8]; solution pH 6.5, 30 Seconds) was “no observed inhibition”. The Percent reduction [9] was “no observed inhibition”.

In the case of CC[C@@]1(O)C(=O)OCc2c1cc1n(c2=O)Cc2cc3ccccc3nc2-1 [Camptothecin], the “Stability of rubusoside water solution at room temperature” value [10] is reported as “stable at room temperature for at least two weeks”, the IC50 [11, 16] is reported as 1.91 μl/ml and the IC50 [11, 17] is reported as 54.9 nM. The “Concentration dissolved in rubusoside water solution” value (physchem; 70 mg (109 mM) rubusoside) was 144 µM, the “Concentration dissolved in rubusoside water solution” value (physchem; 70 mg rubusoside (70 mg/ml, 109 mM)) was 50 µg/mL and the solubility (physchem; aqueous with cosolvent or surfactant or cyclodextrin, Solubility in water with solubilizer, natural solubilizer (rubusoside) 20% w/v (200 mg in 1 ml)) was 144 µg/mL (≈ 413 µM). For the same compound, the solubility (physchem; water, Solubility of CPT, Table 4, rubusoside amount as in the label) was 0.4 µg/mL (≈ 1.15 µM), the “Water solubility in words” value [12] was “insoluble” and the IC50 [13] was 10 to 3500 nM. It also gave an IC50 [14, 16] of 4.93 μl/ml, an IC50 [14, 17] of 142 nM and an IC50 [15, 16] of 1.03 μl/ml. The IC50 [15, 17] was 29.6 nM.
